Data from patent US9101638B2, “Boronic acid derivatives and therapeutic uses thereof” (Rempex Pharmaceuticals, Inc., priority 2013, dated 2015).

What was measured:
SHV-12 = SHV-12 (Klebsiella pneumoniae, UniProt P0AD64, E235K/G234S/L31Q); assay: Inhibition of nitrocefin cleavage by purified SHV-12; format: biochemical; details: nitrocefin reporter substrate, purified enzyme; read-out: Ki (SHV-12, NCF)
Description: (§1) Purified enzymes were mixed with various concentrations of inhibitors in reaction buffer and incubated for 10 min at room temperature. Nitrocefin was added and substrate cleavage profiles were recorded at 490 nm every 10 sec for 10 min.

ec302 (TEM-10) [1] = assay: Potentiation of aztreonam, strain ec302; format: cell-based
CathepsinA = biological target: T1, CathepsinA (Homo sapiens, UniProt P10619); assay: Serine protease inhibition: cathepsin A; format: biochemical, mammalian; details: Table 8B; read-out: IC50 CathepsinA
T1 construct: purchased R&D Systems 1049-SE
T1 sequence (P10619 29-480): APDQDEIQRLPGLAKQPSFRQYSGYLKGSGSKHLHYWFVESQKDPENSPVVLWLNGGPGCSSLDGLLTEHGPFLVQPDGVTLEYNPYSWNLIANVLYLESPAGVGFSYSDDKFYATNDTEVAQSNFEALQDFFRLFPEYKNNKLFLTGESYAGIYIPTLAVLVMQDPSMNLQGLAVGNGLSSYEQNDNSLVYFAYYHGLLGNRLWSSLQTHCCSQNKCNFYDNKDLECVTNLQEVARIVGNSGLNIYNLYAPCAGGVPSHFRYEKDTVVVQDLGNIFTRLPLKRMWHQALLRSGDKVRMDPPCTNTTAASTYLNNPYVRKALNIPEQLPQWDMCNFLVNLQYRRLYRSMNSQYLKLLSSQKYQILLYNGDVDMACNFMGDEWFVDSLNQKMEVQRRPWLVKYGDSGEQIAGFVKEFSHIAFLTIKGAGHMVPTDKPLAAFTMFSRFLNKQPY
Description: (§2) The effect of selected BLIs on the enzymatic activity of some common mammalian serine proteases was evaluated.
(§3) 50 μl of the diluted enzyme was mixed with 50 μl of inhibitor at various concentrations and 50 μl of corresponding buffer (Table 7). Reaction mixtures were incubated for 10 min at 37° C. Subsequently, 50 μl of corresponding substrate (Table 7) was added and absorbance or fluorescence was monitored for 30 min on SpectraMax M2 plate reader (Molecular Devices). 4-(2-Aminoethyl)benzenesulfonyl fluoride hydrochloride (AEBSF) and leupeptin were used as positive controls. Rates of reaction were calculated and presented relative to “no treatment” control.

ec308 (SHV-5) [2] = assay: Potentiation of tigemonam, strain ec308; format: cell-based; details: minimum BLI concentration inhibiting growth with 4 μg/mL tigemonam
KP1005 (CTX-M-14) = assay: Potentiation of aztreonam, strain KP1005; format: cell-based
ec308 (SHV-5) [3] = assay: Potentiation of aztreonam, strain ec308; format: cell-based; details: minimum BLI concentration inhibiting growth with 4 μg/mL aztreonam
KP1009 (CTX-M-15) [4] = assay: Potentiation of aztreonam, strain KP1009; format: cell-based
CathepsinG = biological target: T2, CathepsinG (Homo sapiens, UniProt P08311); assay: Serine protease inhibition: cathepsin G; format: biochemical, mammalian; details: Table 8B
T2 construct: purchased EMD Millipore 219373
T2 sequence (P08311 21-244): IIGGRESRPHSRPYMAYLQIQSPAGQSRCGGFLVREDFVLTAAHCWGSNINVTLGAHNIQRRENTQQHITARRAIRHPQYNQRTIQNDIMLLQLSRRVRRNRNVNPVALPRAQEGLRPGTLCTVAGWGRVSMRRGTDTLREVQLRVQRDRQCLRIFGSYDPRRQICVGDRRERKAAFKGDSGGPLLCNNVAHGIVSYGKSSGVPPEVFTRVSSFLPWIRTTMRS
Description: as §2, §3

KP1004 (K-2) = assay: Potentiation of aztreonam, strain KP1004; format: cell-based; details: minimum BLI concentration inhibiting growth with 4 μg/mL aztreonam
EC1010 (CMY-6) [5] = assay: Potentiation of aztreonam, strain EC1010; format: cell-based
PAM1032/KPC-2 = assay: Biapenem potentiation in PAM1032/KPC-2 (MexAB-OprM overexpressed); format: cell-based, Pseudomonas aeruginosa; details: BLI potency to decrease biapenem MIC 64-fold, 32 to 0.5 μg/ml; efflux proficient strain
Description: (§4) Efflux of BLIs from Pseudomonas aeruginosa by the MexAB-OprM efflux pump was also evaluated. […] Due to expression of KPC-2 both strains became resistant to biapenem. […] Potency of BLIs to potentiate biapenem in these strains was determined. […] The ratio of MPC64 values for each BLI in PAM1032/KPC-2 (efflux proficient) and PAM1154/KPC-2 (efflux deficient) was determined to generate the Efflux Index (EI).

KP1009 (CTX-M-15) [6] = assay: Potentiation of tigemonam, strain KP1009; details: minimum BLI concentration inhibiting growth with 4 μg/mL tigemonam
PAM1154/KPC-2 = assay: Biapenem potentiation in PAM1154/KPC-2 (MexAB-OprM lacking); format: cell-based, Pseudomonas aeruginosa
Description: as §4

KPC-2 = KPC-2 (Klebsiella pneumoniae, UniProt Q9F663); assay: Inhibition of nitrocefin cleavage by purified KPC-2; format: biochemical; details: nitrocefin reporter substrate, purified enzyme; read-out: Ki (KPC-2, NCF)
Chain of KPC-2 (Q9F663 25-293, looked up, species assumed): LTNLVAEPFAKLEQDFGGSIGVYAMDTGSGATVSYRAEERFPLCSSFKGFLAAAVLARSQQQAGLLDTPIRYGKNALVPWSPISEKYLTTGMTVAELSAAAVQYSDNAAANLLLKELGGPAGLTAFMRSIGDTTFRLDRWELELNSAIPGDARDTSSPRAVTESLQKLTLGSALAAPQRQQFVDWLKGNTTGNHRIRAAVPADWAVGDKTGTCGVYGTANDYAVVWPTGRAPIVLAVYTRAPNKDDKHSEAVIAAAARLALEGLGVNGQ
Description: as §1

ECL1002 = assay: Potentiation of aztreonam, strain ECL1002; format: cell-based; details: minimum BLI concentration inhibiting growth with 4 μg/mL aztreonam
ec302 (TEM-10) [7] = assay: Potentiation of tigemonam, strain ec302; format: cell-based
OXA-48 = OXA-48 (Klebsiella pneumoniae, UniProt Q6XEC0); assay: Inhibition of nitrocefin cleavage by purified OXA-48; format: biochemical; details: nitrocefin reporter substrate, purified enzyme; read-out: Ki (OXA-48, NCF)
Chain of OXA-48 (Q6XEC0 23-265 limits assumed): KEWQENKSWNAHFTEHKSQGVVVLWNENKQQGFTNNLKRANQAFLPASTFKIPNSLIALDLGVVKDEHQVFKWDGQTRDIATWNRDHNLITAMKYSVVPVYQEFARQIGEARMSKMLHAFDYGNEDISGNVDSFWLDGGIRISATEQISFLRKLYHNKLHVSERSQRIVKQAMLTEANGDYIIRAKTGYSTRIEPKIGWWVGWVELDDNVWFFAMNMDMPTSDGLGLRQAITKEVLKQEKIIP
Description: as §1

EC1010 (CMY-6) [8] = format: cell-based
CTX-M-14 = CTX-M-14 (Escherichia coli, UniProt Q9L5C7); assay: Inhibition of nitrocefin cleavage by purified CTX-M-14; format: biochemical; details: nitrocefin reporter substrate, purified enzyme; read-out: Ki (CTX-M-14, NCF)
Chain of CTX-M-14 (Q9L5C7 entry or part of it): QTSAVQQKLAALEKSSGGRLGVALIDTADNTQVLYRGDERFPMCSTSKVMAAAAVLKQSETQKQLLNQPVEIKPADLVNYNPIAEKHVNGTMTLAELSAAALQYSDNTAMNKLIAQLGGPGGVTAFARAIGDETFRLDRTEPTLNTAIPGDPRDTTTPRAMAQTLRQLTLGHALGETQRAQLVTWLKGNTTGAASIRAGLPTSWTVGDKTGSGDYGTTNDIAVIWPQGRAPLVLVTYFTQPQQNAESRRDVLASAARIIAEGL
Description: as §1

Chain of SHV-12 (P0AD64 22-286 L31Q/G234S/E235K): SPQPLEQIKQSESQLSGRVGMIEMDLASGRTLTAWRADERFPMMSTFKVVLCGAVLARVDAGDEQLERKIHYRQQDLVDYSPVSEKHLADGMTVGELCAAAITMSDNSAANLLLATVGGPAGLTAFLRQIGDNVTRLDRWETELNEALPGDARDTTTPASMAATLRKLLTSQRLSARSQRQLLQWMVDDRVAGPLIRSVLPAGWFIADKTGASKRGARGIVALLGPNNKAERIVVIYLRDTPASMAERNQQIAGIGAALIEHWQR

| SMILES | Ki (SHV-12) | AZT MPC4 TEM-10 ec302 (ec302 (TEM-10) [1]) | IC50 (CathepsinA) | TIG MPC4 SHV-5 ec308 (ec308 (SHV-5) [2]) | AZT MPC4 CTX-M-14 KP1005 (KP1005 (CTX-M-14)) | AZT MPC4 SHV-5 ec308 (ec308 (SHV-5) [3]) | AZT MPC4 CTX-M-15 KP1009 (KP1009 (CTX-M-15) [4]) | IC50 (CathepsinG) | AZT MPC4 K-2 KP1004 (KP1004 (K-2)) | AZT MPC4 CMY-6 EC1010 (EC1010 (CMY-6) [5]) | PAM1032/KPC-2 Biapenem MPC64 (PAM1032/KPC-2) | TIG MPC4 CTX-M-15 KP1009 (KP1009 (CTX-M-15) [6]) | PAM1154/KPC-2 Biapenem MPC64 (PAM1154/KPC-2) | Ki (KPC-2) | AZT MPC4 ECL1002 (ECL1002) | TIG MPC4 TEM-10 ec302 (ec302 (TEM-10) [7]) | Ki (OXA-48) | TIG MPC4 CMY-6 EC1010 (EC1010 (CMY-6) [8]) | Ki (CTX-M-14) |
| --- | --- | --- | --- | --- | --- | --- | --- | --- | --- | --- | --- | --- | --- | --- | --- | --- | --- | --- | --- |
| O=C(N[C@H]1Cc2cccc(C(=O)O)c2OB1O)c1cncs1 [Compound 15, (R)-2-hydroxy-3-(thiazole-5-carboxamido)-3,4-dihydro-2H-benzo[e][1,2]oxaborinine-8-carboxylic acid] | < 1 nM | X (key: X = MIC of less than 1 μg/mL; Y = MIC of 1 μg/mL to 10 μg/mL; Z = MIC of greater than 10 μg/mL) | 15000 to 500000 nM | Y (Y = MIC of 1 μg/mL to 10 μg/mL) | Y (key: X = MIC of less than 1 μg/mL; Y = MIC of 1 μg/mL to 10 μg/mL; Z = MIC of greater than 10 μg/mL) | X (X = MIC of less than 1 μg/mL) | Y (key: X = MIC of less than 1 μg/mL; Y = MIC of 1 μg/mL to 10 μg/mL; Z = MIC of greater than 10 μg/mL) | 15000 to 500000 nM | Y (Y = MIC of 1 μg/mL to 10 μg/mL) | Y (key: X = MIC of less than 1 μg/mL; Y = MIC of 1 μg/mL to 10 μg/mL; Z = MIC of greater than 10 μg/mL) | Z (Z Greater than 40) | Y (Y = MIC of 1 μg/mL to 10 μg/mL) | X (key: X = Less than 10; Y = 10 to 40; Z Greater than 40) | > 10 nM | Y (Y = MIC of 1 μg/mL to 10 μg/mL) | Y (key: X = MIC of less than 1 μg/mL; Y = MIC of 1 μg/mL to 10 μg/mL; Z = MIC of greater than 10 μg/mL) | < 1 nM | Y (key: X = MIC of less than 1 μg/mL; Y = MIC of 1 μg/mL to 10 μg/mL; Z = MIC of greater than 10 μg/mL) | < 1 nM |
| CSCC(=O)N[C@H]1Cc2cccc(C(=O)O)c2OB1O [Compound 13, (R)-2-hydroxy-3-(2-(methylthio)acetamido)-3,4-dihydro-2H-benzo[e][1,2]oxaborinine-8-carboxylic acid] | – | Y (key: X = MIC of less than 1 μg/mL; Y = MIC of 1 μg/mL to 10 μg/mL; Z = MIC of greater than 10 μg/mL) | – | X (X = MIC of less than 1 μg/mL) | X (key: X = MIC of less than 1 μg/mL; Y = MIC of 1 μg/mL to 10 μg/mL; Z = MIC of greater than 10 μg/mL) | X (X = MIC of less than 1 μg/mL) | – | – | X (X = MIC of less than 1 μg/mL) | – | Y (Y = 10 to 40) | X (X = MIC of less than 1 μg/mL) | X (key: X = Less than 10; Y = 10 to 40; Z Greater than 40) | > 10 nM | X (X = MIC of less than 1 μg/mL) | – | < 1 nM | X (key: X = MIC of less than 1 μg/mL; Y = MIC of 1 μg/mL to 10 μg/mL; Z = MIC of greater than 10 μg/mL) | < 1 nM |
